Results: US20250250251A1, “PIPERIDINYLPYRIDINYLCARBONITRILE DERIVATIVES AS INHIBITORS OF GLUTAMINYL-PEPTIDE CYCLOTRANSFERASE AND GLUTAMINYL-PEPTIDE CYCLOTRANSFERASE LIKE PROTEIN” (Boehringer Ingelheim International GmbH, priority 2024, published 2025)

test system: SIRPα signalling induced by A549 cells; experiment: Assay B: SIRPα signalling assay using A549 cells; format: cell-based; details: Homo sapiens, Table 4, compounds of the invention, read-out: Inhibition of SIRPα signalling induced by A549 cells: IC50
Method: Two cell types are independently used: the Raji cell line (lymphoblast-like human cell line derived from B lymphocytes from a Burkitt's lymphoma patient in 1963) and A549 cells (adenocarcinoma human alveolar basal epithelial cells).
Test compounds were dissolved in 100% DMSO and serially diluted into a white 384-well microtiter cell culture plate (PerkinElmer #60076780 in case of Raji assay; PDL-coated plates Greiner #781945 in case of A549 assay). 5000 Raji cells (ATCC #CC86) or 5000 A549 cells (ATCC #CCL-185) in Assay Complete Cell Plating reagent 30 (DiscoverX 93-0563R30B) were added per well. The assay plate was incubated for 48 h at 37° C., 95% humidity and 5% CO2. 15000 reporter cells (Jurkat PathHunter SIRPαV1, DiscoverX #93-1135C19) were added to each well, and the plate was incubated for 5 h at 37° C., 95% humidity and 5% CO2. Bioassay reagent 1 of the PathHunter Bioassay detection kit (DiscoverX 93-0001) was added to each well of the plate using a multichannel pipette followed by a 15 min incubation at room temperature. Afterwards bioassay reagent 2 was added followed by 60 min incubation at room temperature (incubation in the dark).
The analysis of the data was performed using the luminescence signal generated by beta-galactosidase in the PathHunter reporter cell line. The luminescence measurement was done using a Pherastar Multi-Mode Reader. Dose-response curves & IC50 data were calculated with 4-parameter sigmoidal dose response formula.

Going from `Cn1cnnc1C1(F)CCN(c2c(C#N)cc(C(F)(F)F)nc2-c2cc3cn(C(C)(C)C)nc3nc2C(F)F)CC1` [Example 14] to `Cn1cnnc1C1(F)CCN(c2c(C#N)cc(C(C)(F)F)nc2-c2cnc3nn(C)c(C(F)(F)F)c3c2)CC1` [Example 9], the IC50 falls from 44 nM to 14 nM (3.1-fold).

Work on `Cn1cnnc1C1(F)CCN(c2c(C#N)cc(C3CC3)nc2-c2cnc3nn(C(F)(F)F)cc3c2)CC1` [Example 2] yielded an IC50 of 14 nM.

test system: CYP3A4 mRNA; experiment: Assay D: CYP induction screening assay in primary human hepatocytes; format: in vitro ADME; details: Table 9, compounds of the invention, 48 h
Method: Cryopreserved plateable human hepatocytes (single donor. BioIVT) were thawed and plated in Collagen-I coated 96-well-plates at a cell density of 0.07 million cells per well.
After a 6 h attachment period, the seeding medium was replaced by serum-free William's medium E supplemented with Matrigel (0.25 mg/ml) and allowed to recover overnight. 24 h post-seeding, serum-free Williams E medium containing the test compound at a final concentration of […] and a final DMSO content of 0.1% and 0.1% DMSO (solvent-treated control), respectively, was added to predefined wells. Exposure solutions were renewed after 24 h.
After 48 h of treatment in total, the effect of the test compounds on CYP3A4 mRNA expression was assessed using the QuantiGene Plex Gene Expression Assay. Hepatocytes were lysed and total RNA was extracted using the QuantiGene Sample Processing Kit according to the instructions of the manufacturer.
mRNA quantification was conducted using a customized QuantiGene Plex Panel to analyse CYP3A4 and the housekeeper genes RPL32, EIF4E2 and GUSB according to the instructions of the manufacturer and measured on a Luminex™ instrument. Signal was reported as median fluorescence intensity (MFI), which is proportional to the number of target RNA molecules present in the sample.
For calculation of CYP3A4 mRNA induction, the signal for CYP3A4 was normalized against the geometric mean of the signal obtained for the housekeeper genes for hepatocytes exposed to test compounds in relation to solvent-treated samples according to the following equation: […]

First: Cn1cnnc1C1(F)CCN(c2c(C#N)cc(C(C)(F)F)nc2-c2cnc3nn(C)c(C(F)(F)F)c3c2)CC1 [Example 9]
Second: Cn1cnnc1C1(F)CCN(c2c(C#N)cc(C3CC3)nc2-c2cnc3nn(C(F)(F)F)cc3c2)CC1 [Example 2]
The “n-fold induction of CYP3A4 at 10 μM” value of the first is lower: 4.2 n-fold for the first, 4.6 n-fold for the second.

biological target: T1, QPCTL (Homo sapiens, UniProt Q9NXS2); experiment: Assay A: biochemical QPCTL activity assay (MALDI-TOF MS, CD47 peptide substrate); details: Table 2, compounds of the invention, read-out: Inhibition of QPCTL: IC50
T1 construct: made in house
T1 sequence (Q9NXS2 whole entry, species assumed): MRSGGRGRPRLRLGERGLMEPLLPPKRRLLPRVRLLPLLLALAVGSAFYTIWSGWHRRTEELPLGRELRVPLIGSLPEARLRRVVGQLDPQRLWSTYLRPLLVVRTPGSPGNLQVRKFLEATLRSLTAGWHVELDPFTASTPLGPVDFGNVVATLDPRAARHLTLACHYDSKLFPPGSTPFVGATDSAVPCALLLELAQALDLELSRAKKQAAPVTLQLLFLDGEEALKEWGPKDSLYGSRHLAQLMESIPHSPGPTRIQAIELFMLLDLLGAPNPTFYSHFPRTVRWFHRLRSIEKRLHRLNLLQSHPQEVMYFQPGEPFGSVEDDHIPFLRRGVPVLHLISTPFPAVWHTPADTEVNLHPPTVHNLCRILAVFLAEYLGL
Method: (§1) QPCT or QPCTL dependent conversion of N-terminal glutamine to pyroglutamate of CD47 was monitored via MALDI-TOF MS. Test compounds were dissolved in 100% DMSO and serially diluted into clear 1,536-well microtiter plates. Enzymatic reactions were set up in assay buffer containing 20 mM Tris pH 7.5, 0.1 mM TCEP, 0.01% BSA, and 0.001% Tween20. […] The plates were incubated for 10 min in a humidified incubator at 24° C. Subsequently, 2.5 μL of CD47 peptide substrate surrogate (^19[…]^33) was added to each well (final concentration: 10 μM for QPCTL/20 μM for QPCT). The plates were mixed for 30 sec at 1,000 rpm and subsequently incubated for 40 min in a humidified incubator at 24° C. […] The plates were sealed with an adhesive foil, mixed for 30 s at 1,000 rpm and stored at room temperature until preparation of the MALDI target plates. MALDI target plates were prepared as described previously. […] QPCT or QPCTL activity was monitored by calculating the ratio between product and internal standard signals followed by normalization to high (100% activity) and low (0% activity) controls. Determination of compound potencies was obtained by fitting the dose-response data to a four-parameter logistical equation.

Going from `Cn1cnnc1C1(F)CCN(c2c(C#N)cc(C(F)(F)F)nc2-c2cc3cn(C(C)(C)C)nc3nc2C(F)F)CC1` [Example 14] to `Cn1cnnc1C1(F)CCN(c2c(C#N)cc(C(C)(F)F)nc2-c2cnc3nn(C)c(C(F)(F)F)c3c2)CC1` [Example 9], the IC50 falls from 28 nM to 6 nM (4.7-fold). The second is the more potent here.

In the case of `Cn1cnnc1C1(F)CCN(c2c(C#N)cc(C3CC3)nc2-c2cnc3nn(C(F)(F)F)cc3c2)CC1` [Example 2], the IC50 is reported as 1 nM.

test system: not listed separately; experiment: Assay C: permeability in CACO-2 cells; format: in vitro ADME; details: human, pH 7.2; Table 7, compounds of the invention, CACO-2 cells
Method: Caco-2 cells (1-2×10^5 cells/1 cm^2 area) are seeded on filter inserts (Costar transwell polycarbonate or PET filters, 0.4 μm pore size) and cultured (DMEM) for 10 to 25 days. Compounds are dissolved in appropriate solvent (like DMSO, 1-20 mM stock solutions). […] The transport solution (TL) is applied to the apical or basolateral donor side for measuring A-B or B-A permeability (3 filter replicates), respectively. Samples are collected at the start and end of experiment from the donor and at various time intervals for up to 2 hours also from the receiver side for concentration measurement by HPLC-MS/MS or scintillation counting. Sampled receiver volumes are replaced with fresh receiver solution.
Efflux ratio (ER)=permeability B−A/permeability A−B

`Cn1cnnc1C1(F)CCN(c2c(C#N)cc(C(F)(F)F)nc2-c2cc3cn(C(C)(C)C)nc3nc2C(F)F)CC1` [Example 14] and `Cn1cnnc1C1(F)CCN(c2c(C#N)cc(C(C)(F)F)nc2-c2cnc3nn(C)c(C(F)(F)F)c3c2)CC1` [Example 9] are the same in Papp A→B: 14 ×10⁻⁶ cm/s for the first, 14 ×10⁻⁶ cm/s for the second.

`Cn1cnnc1C1(F)CCN(c2c(C#N)cc(C3CC3)nc2-c2cnc3nn(C(F)(F)F)cc3c2)CC1` [Example 2] showed a Papp A→B of 37 ×10⁻⁶ cm/s.

same assay, conditions: human, pH 7.2; Table 7, compounds of the invention, CACO-2 cells, permeability B-A/permeability A-B; read-out: Efflux Ratio

Compared with `Cn1cnnc1C1(F)CCN(c2c(C#N)cc(C(F)(F)F)nc2-c2cc3cn(C(C)(C)C)nc3nc2C(F)F)CC1` [Example 14], `Cn1cnnc1C1(F)CCN(c2c(C#N)cc(C(C)(F)F)nc2-c2cnc3nn(C)c(C(F)(F)F)c3c2)CC1` [Example 9] is higher in efflux ratio: 5.3 for the first, 6.4 for the second.

For `Cn1cnnc1C1(F)CCN(c2c(C#N)cc(C3CC3)nc2-c2cnc3nn(C(F)(F)F)cc3c2)CC1` [Example 2], the efflux ratio was 1.6.

test system: murine hepatocytes; experiment: Assay E: stability in murine hepatocytes; format: in vitro ADME, mouse; details: Table 12, compounds of the invention, 1 μM, 5% species serum
Method: The metabolic degradation of the test compound is assayed in a murine hepatocyte suspension.
Murine hepatocytes (typically cryopreserved) are incubated in an appropriate buffer system (e.g. Dulbecco's modified eagle medium plus 3.5 μg glucagon/500 mL, 2.5 mg insulin/500 mL and 3.75 mg/500 mL hydrocortison) containing 5% species serum.
Following a (typically) 30 min preincubation in an incubator (37° C., 10% CO2) 5 μl of test compound solution (80 μM; from 2 mM in DMSO stock solution diluted 1:25 with medium) are added into 395 μl hepatocyte suspension (cell density in the range 0.25-5 Mio cells/mL, typically 1 Mio cells/mL; final concentration of test compound 1 μM, final DMSO concentration 0.05%).
The cells are incubated for six hours (incubator, orbital shaker) and samples (25 μl) are taken at 0, 0.5, 1, 2, 4 and 6 hours. Samples are transferred into acetonitrile and pelleted by centrifugation (5 min). The supernatant is transferred to a new 96-deepwell plate, evaporated under nitrogen and resuspended.
Decline of parent compound is analyzed by HPLC-MS/MS
CLint is calculated as follows CL_[…]=Dose/AUC=(C0/CD)/(AUD+clast/k)×1000/60. C0: initial concentration in the incubation [μM], CD: cell density of vital cells [10e6 cells/mL], AUD: area under the data [μM×h], clast: concentration of last data point [μM], k: slope of the regression line for parent decline [h−1].
The calculated in vitro hepatic intrinsic clearance can be scaled up to the intrinsic in vivo hepatic Clearance and used to predict hepatic in vivo blood clearance (CL) by the use of a liver model (well stirred model).
[formula] [formula] [formula] • Hepatocellularity, mouse: 120×10e6 cells/g liver • Liver factor, mouse: 55 g/kg bodyweight • Blood flow, mouse: 90 ml/(min×kg)

With `Cn1cnnc1C1(F)CCN(c2c(C#N)cc(C(F)(F)F)nc2-c2cc3cn(C(C)(C)C)nc3nc2C(F)F)CC1` [Example 14] the “Mouse Hepatocyte Stability QH” value was under 12%.

First: Cn1cnnc1C1(F)CCN(c2c(C#N)cc(C(C)(F)F)nc2-c2cnc3nn(C)c(C(F)(F)F)c3c2)CC1 [Example 9]
Second: Cn1cnnc1C1(F)CCN(c2c(C#N)cc(C3CC3)nc2-c2cnc3nn(C(F)(F)F)cc3c2)CC1 [Example 2]
The “Mouse Hepatocyte Stability QH” value of the first is lower: 34% for the first, 49% for the second.

test system: SIRPα signalling induced by Raji cells; experiment: Assay B: SIRPα signalling assay using Raji cells; format: cell-based; details: Homo sapiens, Table 4, compounds of the invention, read-out: Inhibition of SIRPα signalling induced by Raji cells: IC50
Method: Bioassay reagent 1 of the PathHunter Bioassay detection kit (DiscoverX 93-0001) was added to each well of the plate using a multichannel pipette followed by a 15 min incubation at room temperature. Afterwards bioassay reagent 2 was added followed by 60 min incubation at room temperature (incubation in the dark).
The analysis of the data was performed using the luminescence signal generated by beta-galactosidase in the PathHunter reporter cell line. The luminescence measurement was done using a Pherastar Multi-Mode Reader.

`Cn1cnnc1C1(F)CCN(c2c(C#N)cc(C(F)(F)F)nc2-c2cc3cn(C(C)(C)C)nc3nc2C(F)F)CC1` [Example 14] and `Cn1cnnc1C1(F)CCN(c2c(C#N)cc(C(C)(F)F)nc2-c2cnc3nn(C)c(C(F)(F)F)c3c2)CC1` [Example 9] are within 1.5-fold of each other in IC50: 117 nM for the first, 83 nM for the second.

`Cn1cnnc1C1(F)CCN(c2c(C#N)cc(C3CC3)nc2-c2cnc3nn(C(F)(F)F)cc3c2)CC1` [Example 2] showed an IC50 of 20 nM.

biological target: T2, QPCT (Homo sapiens, UniProt Q16769); experiment: Assay A: biochemical QPCT activity assay (MALDI-TOF MS, CD47 peptide substrate); details: Table 2, compounds of the invention, read-out: Inhibition of QPCT: IC50
T2 construct: purchased Origine (OriGene) TP700028
T2 sequence (Q16769 29-361): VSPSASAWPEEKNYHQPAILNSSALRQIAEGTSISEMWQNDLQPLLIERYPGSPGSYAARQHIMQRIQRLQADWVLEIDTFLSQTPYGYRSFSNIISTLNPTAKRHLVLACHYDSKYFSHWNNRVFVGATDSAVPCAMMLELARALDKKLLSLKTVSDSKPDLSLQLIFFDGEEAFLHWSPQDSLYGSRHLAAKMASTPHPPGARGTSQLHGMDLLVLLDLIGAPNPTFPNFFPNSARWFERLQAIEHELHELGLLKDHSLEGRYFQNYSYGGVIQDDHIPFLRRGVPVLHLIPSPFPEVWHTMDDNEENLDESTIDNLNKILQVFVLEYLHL
Method: as §1

Going from `Cn1cnnc1C1(F)CCN(c2c(C#N)cc(C(F)(F)F)nc2-c2cc3cn(C(C)(C)C)nc3nc2C(F)F)CC1` [Example 14] to `Cn1cnnc1C1(F)CCN(c2c(C#N)cc(C(C)(F)F)nc2-c2cnc3nn(C)c(C(F)(F)F)c3c2)CC1` [Example 9], the IC50 falls from 11 nM to 5 nM (2.2-fold).

With `Cn1cnnc1C1(F)CCN(c2c(C#N)cc(C3CC3)nc2-c2cnc3nn(C(F)(F)F)cc3c2)CC1` [Example 2] the IC50 was 1 nM.
